Columns and labels:
Assay type in all cases: biochemical
PKC delta kinase = PKC delta kinase (Homo sapiens, UniProt Q05655); assay: PKC delta kinase inhibition, coupled-enzyme (NADH absorbance) assay, Ki; details: 150 μM ATP, 46 nM PKC delta kinase, 30° C.; read-out: Ki PKC delta
Protocol: (§1) An assay buffer solution was prepared which consisted of 100 mM HEPES (pH 7.5), 10 mM MgCl2, 25 mM NaCl, 0.1 mM EDTA and 0.01% Brij. […] To 16 μL of this enzyme buffer, in a 384 well plate, was added 1 μL of VRT stock solution in DMSO. The mixture was allowed to equilibrate for 10 mins at 30° C. The enzyme reaction was initiated by the addition of 16 μL stock ATP solution prepared in assay buffer to a final assay concentration of 150 μM. Initial rate data was determined from the rate of change of absorbance at 340 nm (corresponding to stoichiometric consumption of NADH) using a Molecular Devices Spectramax plate reader (Sunnyvale, Calif.) over 15 mins at 30° C. […] Ki values were calculated from initial rate data by non-linear regression using the Prism software package (Prism 4.0a, Graphpad Software, San Diego, Calif.).

PKC theta kinase = PKC theta kinase (Homo sapiens, UniProt Q04759); assay: PKC theta kinase inhibition, coupled-enzyme (NADH absorbance) assay, Ki; details: 240 μM ATP, 18 nM PKC theta kinase, 30° C.
Protocol: An assay buffer solution was prepared which consisted of 100 mM HEPES (pH 7.5), 10 mM MgCl2, 25 mM NaCl, 0.1 mM EDTA and 0.01% Brij. […] To 60 μL of this enzyme buffer, in a 384 well plate, was added 2 μL of VRT stock solution in DMSO. The mixture was allowed to equilibrate for 10 mins at 30° C. […] Ki values were calculated from initial rate data by non-linear regression using the Prism software package (Prism 4.0a, Graphpad Software, San Diego, Calif.).

PKC alpha kinase = PKC alpha kinase (Homo sapiens, UniProt P17252); assay: PKC alpha kinase inhibition, coupled-enzyme (NADH absorbance) assay, Ki; details: 130 μM ATP, 4.5 nM PKC alpha kinase, 30° C.
Protocol: as §1, with “EDTA, 100 μM CaCl2” for “EDTA”, “130” for “150”

Sequence of PKC theta kinase (Q04759 whole entry): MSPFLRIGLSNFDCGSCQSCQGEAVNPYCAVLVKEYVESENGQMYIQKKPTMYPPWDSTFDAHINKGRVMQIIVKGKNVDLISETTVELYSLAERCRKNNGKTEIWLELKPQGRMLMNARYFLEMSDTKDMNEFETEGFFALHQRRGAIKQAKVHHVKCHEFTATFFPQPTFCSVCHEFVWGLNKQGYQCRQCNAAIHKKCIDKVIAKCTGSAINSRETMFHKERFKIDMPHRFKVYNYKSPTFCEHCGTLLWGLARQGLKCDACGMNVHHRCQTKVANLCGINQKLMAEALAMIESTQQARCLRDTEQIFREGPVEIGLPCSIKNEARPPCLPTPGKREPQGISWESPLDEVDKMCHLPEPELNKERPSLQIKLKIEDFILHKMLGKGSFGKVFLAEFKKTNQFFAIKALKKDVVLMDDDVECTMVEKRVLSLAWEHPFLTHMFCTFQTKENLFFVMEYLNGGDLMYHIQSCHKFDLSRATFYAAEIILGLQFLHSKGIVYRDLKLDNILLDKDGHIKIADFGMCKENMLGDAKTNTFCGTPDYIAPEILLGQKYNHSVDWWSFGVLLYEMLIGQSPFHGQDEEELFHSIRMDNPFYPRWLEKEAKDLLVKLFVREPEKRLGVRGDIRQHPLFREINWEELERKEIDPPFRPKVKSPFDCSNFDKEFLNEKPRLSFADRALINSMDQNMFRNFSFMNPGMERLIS
Sequence of PKC delta kinase (Q05655 whole entry): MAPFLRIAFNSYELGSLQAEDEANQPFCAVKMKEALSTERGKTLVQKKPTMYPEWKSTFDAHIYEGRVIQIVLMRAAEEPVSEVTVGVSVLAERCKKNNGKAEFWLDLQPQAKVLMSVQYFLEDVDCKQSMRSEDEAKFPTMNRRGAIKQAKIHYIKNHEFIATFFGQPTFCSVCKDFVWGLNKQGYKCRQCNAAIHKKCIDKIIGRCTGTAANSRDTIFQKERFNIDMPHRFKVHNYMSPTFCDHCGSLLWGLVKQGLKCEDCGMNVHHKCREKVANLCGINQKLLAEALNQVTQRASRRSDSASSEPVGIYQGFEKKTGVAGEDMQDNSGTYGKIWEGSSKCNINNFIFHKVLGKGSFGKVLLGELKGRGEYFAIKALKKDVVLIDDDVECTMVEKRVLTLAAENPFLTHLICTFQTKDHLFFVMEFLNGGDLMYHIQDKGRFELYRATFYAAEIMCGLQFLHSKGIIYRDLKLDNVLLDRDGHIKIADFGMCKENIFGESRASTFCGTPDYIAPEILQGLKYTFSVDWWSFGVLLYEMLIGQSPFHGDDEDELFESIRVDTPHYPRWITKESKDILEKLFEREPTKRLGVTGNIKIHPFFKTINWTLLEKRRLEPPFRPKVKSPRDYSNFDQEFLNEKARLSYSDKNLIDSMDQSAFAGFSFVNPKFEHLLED

Ki (PKC delta kinase)	Ki (PKC theta kinase)	Ki (PKC alpha kinase)	Structure (SMILES)
< 0.5 µM	< 0.05 µM		c1cc(-c2n[nH]c3ncccc23)nc(N2CCCNCC2)c1 [Compound 1]
	< 0.5 µM		C#Cc1cnc2[nH]nc(-c3cccc(N4CCCNCC4)n3)c2c1 [Compound 2]
< 2.8 µM	< 0.5 µM	> 2.8 µM	Cc1ccc(N2CCNCC2)nc1-c1n[nH]c2ncccc12 [Compound 3]
> 1.25 µM	< 0.05 µM	> 1.25 µM	CC(C)C[C@H]1CN(c2ccc(C(F)(F)F)c(-c3n[nH]c4ncccc34)n2)CCN1 [Compound 4, (S)-3-(6-(3-isobutylpiperazin-1-yl)-3-(trifluoromethyl)pyridin-2-yl)-1H-pyrazolo[3,4-b]pyridine]
> 2 µM	< 0.05 µM	> 1.25 µM	FC(F)(F)c1ccc(N2CCNC(c3ccccc3)C2)nc1-c1n[nH]c2ncccc12 (stereo not shown) [Compound 5]
< 0.5 µM	< 0.05 µM	< 0.5 µM	C=C(F)c1ccc(N2CCN[C@@H](CC(C)C)C2)nc1-c1n[nH]c2ncccc12 [Compound 6]
		< 2.8 µM	CC(C)C[C@H]1CN(c2cccc(-c3n[nH]c4ncccc34)n2)CCN1 [Compound 7, (S)-3-(6-(3-isobutylpiperazin-1-yl)pyridin-2-yl)-1H-pyrazolo[3,4-b]pyridine]
< 2.8 µM	< 0.5 µM	> 1.25 µM	FC(F)(F)c1ccc(N2CCNCC2)nc1-c1n[nH]c2ncccc12 [Compound 8]
		< 2.8 µM	c1cc(-c2n[nH]c3ncccc23)nc(N2CCNCC2)c1 [Compound 9]
> 2 µM	< 2.8 µM	> 1.25 µM	CC(C)C[C@H]1CN(c2cccc(-c3n[nH]c4ncccc34)n2)C[C@H](C)N1 [Compound 10]
< 0.05 µM	< 0.05 µM	< 2.8 µM	CC(C)C[C@H]1CN(c2cccc(-c3n[nH]c4ncccc34)n2)C[C@@H](C)N1 [Compound 11]
		> 1.25 µM	C[C@H]1CN(c2cccc(-c3n[nH]c4ncccc34)n2)CCN1 [Compound 19]
		< 2.8 µM	c1ccc(C2CN(c3cccc(-c4n[nH]c5ncccc45)n3)CCN2)cc1 (stereo not shown) [Compound 21]
		< 2.8 µM	CC(C)[C@H]1CN(c2cccc(-c3n[nH]c4ncccc34)n2)CCN1 [Compound 62]
		< 2.8 µM	CC[C@@H]1CN(c2cccc(-c3n[nH]c4ncccc34)n2)CCN1 [Compound 67]
		> 1.25 µM	C[C@@H]1CN(c2cccc(-c3n[nH]c4ncccc34)n2)CCN1 [Compound 70]
< 0.5 µM		> 1.25 µM	CC(C)C[C@H]1CN(c2ccc(F)c(-c3n[nH]c4ncccc34)n2)CCN1 [Compound 112]
		< 0.5 µM	CC(C)CC1(C)CN(c2ccc(C(F)(F)F)c(-c3n[nH]c4ncccc34)n2)CCC1N (stereo not shown) [Compound 158]
		< 0.5 µM	CC(C)C[C@H]1CN(c2cccc(-c3n[nH]c4ncccc34)n2)CC[C@H]1N [Compound 168]
	< 0.05 µM		CC(C)C(C)(O)C1CN(c2cccc(-c3n[nH]c4ncccc34)n2)CCN1 (stereo not shown) [Compound 178]

Ki (PKC delta kinase)	Ki (PKC theta kinase)	Ki (PKC alpha kinase)	Structure (SMILES)
< 0.5 µM		< 2.8 µM	CC(C)C(C)(O)C1CN(c2ccc(F)c(-c3n[nH]c4ncccc34)n2)CCN1 (stereo not shown) [Compound 179]
< 0.5 µM		> 1.25 µM	CC(C)C(C)(O)C1CN(c2ccc(F)c(-c3n[nH]c4ncccc34)n2)CCN1 (stereo not shown) [Compound 180]
		> 1.25 µM	COC[C@H]1CN(c2ccc(F)c(-c3n[nH]c4ncccc34)n2)CCN1 [Compound 185]
< 2.8 µM		> 1.25 µM	CC(C)C[C@@H]1CN(c2ccc(F)c(-c3n[nH]c4ncccc34)n2)CCN1 [Compound 192]
> 1.25 µM		> 1.25 µM	CC(C)C(C)(O)C1CN(c2ccc(F)c(-c3n[nH]c4ncccc34)n2)CCN1 (stereo not shown) [Compound 200]
< 0.5 µM		< 2.8 µM	CC(C)C(C)(O)C1CN(c2ccc(F)c(-c3n[nH]c4ncccc34)n2)CCN1 (stereo not shown) [Compound 201]
< 0.5 µM		> 1.25 µM	CC(C)C(C)(O)C1CN(c2ccc(F)c(-c3n[nH]c4ncccc34)n2)CCN1 (stereo not shown) [Compound 204]
> 1.25 µM		> 1.25 µM	CC(C)C(C)(O)C1CN(c2ccc(F)c(-c3n[nH]c4ncccc34)n2)CCN1 (stereo not shown) [Compound 205]
> 1.25 µM		> 1.25 µM	CC(C)C(C)(O)C1CN(c2ccc(F)c(-c3n[nH]c4ncccc34)n2)CCN1C (stereo not shown) [Compound 229]
< 0.5 µM	< 0.05 µM		CC(C)C(C)(O)C1CN(c2ccc(F)c(-c3n[nH]c4ncccc34)n2)CCN1C (stereo not shown) [Compound 231]
		< 2.8 µM	CC(C)C[C@@H]1CN(c2cccc(-c3n[nH]c4ncccc34)n2)CCN1 [Compound 235]
< 2.8 µM			CC(C)C(C)(O)C1CN(c2ccc(C(F)(F)F)c(-c3n[nH]c4ncccc34)n2)CCN1 (stereo not shown) [Compound 237]
		> 1.25 µM	COC(C)(C(C)C)C1CN(c2ccc(F)c(-c3n[nH]c4ncccc34)n2)CCN1 (stereo not shown) [Compound 239]
< 2.8 µM	< 0.5 µM		CC(N)[C@H]1CCCN(c2ccc(F)c(-c3n[nH]c4ncccc34)n2)C1 (stereo partly shown) [Compound 263]
< 0.5 µM		> 1.25 µM	CC(O)(C1CC1)C1CN(c2ccc(F)c(-c3n[nH]c4ncccc34)n2)CCN1 (stereo not shown) [Compound 271]
< 0.5 µM		> 1.25 µM	CC(O)(C1CC1)C1CN(c2ccc(F)c(-c3n[nH]c4ncccc34)n2)CCN1 (stereo not shown) [Compound 272]
< 2.8 µM		> 1.25 µM	CC(O)(C1CC1)C1CN(c2ccc(F)c(-c3n[nH]c4ncccc34)n2)CCN1 (stereo not shown) [Compound 273]
	< 0.05 µM		C[C@](O)(c1ccccc1)[C@@H]1CN(c2ccc(F)c(-c3n[nH]c4ncccc34)n2)CCN1 [Compound 276]
	> 0.7 µM		CC(C)C(O)[C@@H]1CCCN(c2ccc(F)c(-c3n[nH]c4ncccc34)n2)C1 (stereo partly shown) [Compound 279]
> 1.25 µM			NCC1CN(c2ccc(F)c(-c3n[nH]c4ncccc34)n2)CCC1O (stereo not shown) [Compound 297]

Ki (PKC delta kinase)	Ki (PKC theta kinase)	Ki (PKC alpha kinase)	Structure (SMILES)
	> 0.7 µM		Fc1ccc(N2CCCC(C3CCCN3)C2)nc1-c1n[nH]c2ncccc12 (stereo not shown) [Compound 315]
< 2.8 µM			CC(C)(C)CC(N)C1CCCN(c2ccc(F)c(-c3n[nH]c4ncccc34)n2)C1 (stereo not shown) [Compound 318]
< 2.8 µM	< 0.05 µM		CC(O)(c1ccccc1)C1CN(c2ccc(F)c(-c3n[nH]c4ncccc34)n2)CCN1 (stereo not shown) [Compound 323]
< 0.5 µM	< 0.05 µM		CC(C)CC1(C)CN(c2ccc(C(F)(F)F)c(-c3n[nH]c4ncccc34)n2)CCC1N (stereo not shown) [Compound 388]
> 1.25 µM			CCC(CC)C(N)C1CCCN(c2ccc(F)c(-c3n[nH]c4ncccc34)n2)C1 (stereo not shown) [Compound 392]
< 2.8 µM	< 0.05 µM		CNC(C1CCCN(c2ccc(F)c(-c3n[nH]c4ncccc34)n2)C1)C(C)(C)C (stereo not shown) [Compound 409]
	> 0.7 µM	> 1.25 µM	CC1(C#N)CCN(c2ccc(C(F)(F)F)c(-c3n[nH]c4ncccc34)n2)CC1 [Compound 415]
	> 0.7 µM	> 1.25 µM	CC1(C#N)CCN(c2ccc(F)c(-c3n[nH]c4ncccc34)n2)CC1 [Compound 416]
	> 0.7 µM	> 1.25 µM	CC(C)CC1(C#N)CCN(c2ccc(F)c(-c3n[nH]c4ncccc34)n2)CC1 [Compound 417]
< 2.8 µM			CC(C)(C)C(N)C1CCN(c2ccc(F)c(-c3n[nH]c4ncccc34)n2)C1 (stereo not shown) [Compound 422]
< 0.5 µM			CC(C)C(C)(O)C1CN(c2ccc(Cl)c(-c3n[nH]c4ncccc34)n2)CCN1 (stereo not shown) [Compound 438]
> 1.25 µM	> 0.7 µM		CCC(N)C1(C(F)(F)F)CCN(c2ccc(F)c(-c3n[nH]c4ncccc34)n2)C1 (stereo not shown) [Compound 449]
		> 1.25 µM	CC(C)C(C)(O)C1CN(c2cc(CO)cc(-c3n[nH]c4ncccc34)n2)CCN1 (stereo not shown) [Compound 455]
	< 0.5 µM		N#CCCC1CN(c2ccc(C(F)(F)F)c(-c3n[nH]c4ncccc34)n2)CCC1O (stereo not shown) [Compound 460]
	> 0.7 µM	> 1.25 µM	CC1(CN)CCN(c2ccc(C(F)(F)F)c(-c3n[nH]c4ncccc34)n2)CC1 [Compound 463]
	< 0.5 µM	> 1.25 µM	CCC1CN(c2ccc(C(F)(F)F)c(-c3n[nH]c4ncccc34)n2)CCC1CN (stereo not shown) [Compound 465]
	< 0.05 µM	< 0.5 µM	CC(C)CC1CN(c2cncc(-c3n[nH]c4ncccc34)n2)CCC1N (stereo not shown) [Compound 468]
		< 0.5 µM	CC(C)C(C)(O)C1CN(c2cncc(-c3n[nH]c4ncccc34)n2)CCN1 (stereo not shown) [Compound 470]
